Results: PubChem BioAssay AID180 (DTP/NCI, 2004)
Several values for one entry are separate records, joined by “and”; a condition that tells them apart may be missing. Identical values can stand only once.

System: BDF1 mice, Adenocarcinoma 755 s.c., tumor weight T/C
Assay: NCI In Vivo Anticancer Drug Screen. Data for tumor model Adenocarcinoma 755 (subcutaneous) in B6D2F1 (BDF1) mice
Conditions: endpoint: mean tumor weight, higher = larger tumour
Summary of the method: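 Compound activity was tested in mice carrying transplanted tumors. Survival or tumor size was measured, and each value is the treated-group measurement divided by that of the vehicle-treated control group (T/C).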

[1] = dose: 30.0 mg/kg/injection, schedule: Q01DX011 (ip), vehicle: carboxymethylcellulose (CMC)
[2] = dose: 120.0 mg/kg/injection, schedule: Q01DX011 (ip), vehicle: carboxymethylcellulose (CMC)
[3] = dose: 240.0 mg/kg/injection, schedule: Q01DX011 (ip), vehicle: carboxymethylcellulose (CMC)
[4] = dose: 150.0 mg/kg/injection, schedule: Q01DX011 (ip), vehicle: methylcellulose (MC)
[5] = dose: 400.0 mg/kg/injection, schedule: Q01DX011 (ip), vehicle: carboxymethylcellulose (CMC)
[6] = dose: 37.5 mg/kg/injection, schedule: Q01DX011 (ip), vehicle: carboxymethylcellulose (CMC)
[7] = dose: 150.0 mg/kg/injection, schedule: Q01DX011 (ip), vehicle: carboxymethylcellulose (CMC)
[8] = dose: 300.0 mg/kg/injection, schedule: Q01DX011 (ip), vehicle: carboxymethylcellulose (CMC)
[9] = dose: 75.0 mg/kg/injection, schedule: Q01DX011 (ip), vehicle: methylcellulose (MC)
[10] = dose: 25.0 mg/kg/injection, schedule: Q01DX011 (ip), vehicle: methylcellulose (MC)

How did the T/C (dose: 0.5 mg/kg/injection, schedule: Q01DX011 (ip), vehicle: saline) turn out when `CCN(CC)P(=O)(N1CC1)N1CC1` was run?
The T/C was 60 % of control.

What about the T/C (dose: 1.0 mg/kg/injection, schedule: Q01DX011 (ip), vehicle: saline) of the same molecule?
The T/C was 68 % of control.

And the T/C (dose: 2.0 mg/kg/injection, schedule: Q01DX011 (ip), vehicle: other)?
The T/C was 50 % of control.

And the T/C (dose: 2.0 mg/kg/injection, schedule: Q01DX011 (ip), vehicle: saline)?
The T/C was 43 % of control and 47 % of control.

What about the T/C (dose: 4.0 mg/kg/injection, schedule: Q01DX011 (ip), vehicle: other) of the same molecule?
The T/C was 26 % of control.

And the T/C (dose: 4.0 mg/kg/injection, schedule: Q01DX011 (ip), vehicle: saline)?
Its T/C is 18 % of control and 39 % of control.

What about the T/C (dose: 8.0 mg/kg/injection, schedule: Q01DX011 (ip), vehicle: other) of the same molecule?
The T/C was 14 % of control.

What about the T/C (dose: 8.0 mg/kg/injection, schedule: Q01DX011 (ip), vehicle: saline) of the same molecule?
The T/C was 10 % of control.

With `O=c1[nH]cnc2c1ncn2C1CCCO1` (stereo not given) as the molecule, how does the T/C [1] read?
The T/C was 80 % of control.

And the T/C (dose: 60.0 mg/kg/injection, schedule: Q01DX011 (ip), vehicle: carboxymethylcellulose (CMC))?
Its T/C is 105 % of control.

What about the T/C [2] of the same molecule?
The T/C was 106 % of control.

And the T/C [3]?
Its T/C is 75 % of control.

What does the source list for `C[C@]12C=CC(=O)C=C1CC[C@@H]1[C@@H]2CC[C@]2(C)OC(=O)CC[C@@H]12`?
T/C (dose: 125.0 mg/kg/injection, schedule: Q01DX011 (sc), vehicle: steriod suspending solution): 80 % of control; T/C (dose: 250.0 mg/kg/injection, schedule: Q01DX011 (sc), vehicle: steriod suspending solution): 77 % of control; T/C (dose: 500.0 mg/kg/injection, schedule: Q01DX011 (sc), vehicle: steriod suspending solution): 109 % of control; T/C (dose: 1000.0 mg/kg/injection, schedule: Q01DX011 (sc), vehicle: steriod suspending solution): 75 % of control

With `CC(C)Cn1cnc2c(SCc3ccccc3F)nc(N)nc21` as the molecule, how does the T/C (dose: 18.75 mg/kg/injection, schedule: Q01DX011 (ip), vehicle: methylcellulose (MC)) read?
The T/C was 80 % of control.

And the T/C (dose: 37.5 mg/kg/injection, schedule: Q01DX011 (ip), vehicle: methylcellulose (MC))?
Its T/C is 65 % of control.

And the T/C [4]?
Its T/C is 28 % of control.

With `COC(=O)c1cc(=O)[nH]c(N)n1` as the molecule, how does the T/C (dose: 15.0 mg/kg/injection, schedule: Q01DX011 (ip), vehicle: saline) read?
Its T/C is 101 % of control.

What about the T/C (dose: 31.0 mg/kg/injection, schedule: Q01DX011 (ip), vehicle: saline) of the same molecule?
The T/C was 150 % of control.

And the T/C (dose: 62.0 mg/kg/injection, schedule: Q01DX011 (ip), vehicle: saline)?
Its T/C is 97 % of control.

And the T/C (dose: 125.0 mg/kg/injection, schedule: Q01DX011 (ip), vehicle: saline)?
Its T/C is 81 % of control.

And the T/C (dose: 250.0 mg/kg/injection, schedule: Q01DX011 (ip), vehicle: saline)?
The T/C was 113 % of control.

With `O=[N+]([O-])c1ccc(Oc2cc(Cl)c(Cl)cc2Cl)c([N+](=O)[O-])c1` as the molecule, how does the T/C (dose: 100.0 mg/kg/injection, schedule: Q01DX011 (ip), vehicle: other) read?
The T/C was 91 % of control.

What about the T/C (dose: 200.0 mg/kg/injection, schedule: Q01DX011 (ip), vehicle: carboxymethylcellulose (CMC)) of the same molecule?
The T/C was 56 % of control and 74 % of control.

And the T/C (dose: 200.0 mg/kg/injection, schedule: Q01DX011 (ip), vehicle: other)?
The T/C was 91 % of control.

And the T/C [5]?
Its T/C is 61 % of control.

And the T/C (dose: 400.0 mg/kg/injection, schedule: Q01DX011 (ip), vehicle: other)?
The T/C was 54 % of control.

What about the T/C (dose: 800.0 mg/kg/injection, schedule: Q01DX011 (ip), vehicle: carboxymethylcellulose (CMC)) of the same molecule?
Its T/C is 19 % of control.

And the T/C (dose: 800.0 mg/kg/injection, schedule: Q01DX011 (ip), vehicle: other)?
The T/C was 33 % of control.

Which results are given for `C[C@]12CCC(=O)C=C1CC[C@@H]1[C@@H]2[C@@H](O)C[C@@]2(C)[C@H]1CC[C@]2(O)C(=O)CF`?
T/C (dose: 50.0 mg/kg/injection, schedule: Q01DX011 (sc), vehicle: steriod suspending solution): 21 % of control; T/C (dose: 100.0 mg/kg/injection, schedule: Q01DX011 (sc), vehicle: steriod suspending solution): 16 % of control; T/C (dose: 200.0 mg/kg/injection, schedule: Q01DX011 (sc), vehicle: steriod suspending solution): 6 % of control and 10 % of control; T/C (dose: 400.0 mg/kg/injection, schedule: Q01DX011 (sc), vehicle: steriod suspending solution): 7 % of control and 9 % of control; T/C (dose: 600.0 mg/kg/injection, schedule: Q01DX011 (sc), vehicle: steriod suspending solution): 9 % of control

What does the source list for `CCCCSc1nc(N)nc2c1ncn2CC(C)CC` (stereo not given)?
T/C [6]: 30 % of control and 47 % of control; T/C [7]: 2 % of control and 18 % of control; T/C [8]: 2 % of control

What does the source list for `CSc1nc(Cl)c2cc[nH]c2n1`?
T/C [1]: 89 % of control; T/C [2]: 72 % of control; T/C [3]: 79 % of control

Which results are given for `O=C(Nc1ccc(C2=NCCS2)cc1)c1ccc(C(=O)Nc2ccc(C3=NCCS3)cc2)cc1`?
T/C (dose: 30.0 mg/kg/injection, schedule: Q01DX011 (ip), vehicle: methylcellulose (MC)): 118 % of control; T/C (dose: 120.0 mg/kg/injection, schedule: Q01DX011 (ip), vehicle: methylcellulose (MC)): 121 % of control

For `Cc1cnc(SCc2ccc(Cl)cc2)[nH]c1=O`, which T/C (dose: 15.0 mg/kg/injection, schedule: Q01DX011 (ip), vehicle: methylcellulose (MC)) is on record?
The T/C was 74 % of control.

What about the T/C (dose: 31.0 mg/kg/injection, schedule: Q01DX011 (ip), vehicle: methylcellulose (MC)) of the same molecule?
Its T/C is 84 % of control.

What about the T/C (dose: 62.0 mg/kg/injection, schedule: Q01DX011 (ip), vehicle: methylcellulose (MC)) of the same molecule?
The T/C was 57 % of control.

What about the T/C (dose: 125.0 mg/kg/injection, schedule: Q01DX011 (ip), vehicle: methylcellulose (MC)) of the same molecule?
Its T/C is 49 % of control.

What about the T/C (dose: 250.0 mg/kg/injection, schedule: Q01DX011 (ip), vehicle: methylcellulose (MC)) of the same molecule?
The T/C was 81 % of control.

Which T/C (dose: 4.5 mg/kg/injection, schedule: Q01DX011 (ip), vehicle: saline) does the source give for `NC(CCSCc1ccc(N(CCCl)CCCl)cc1)C(=O)O` (stereo not given) here?
Its T/C is 99 % of control and 74 % of control.

And the T/C (dose: 9.0 mg/kg/injection, schedule: Q01DX011 (ip), vehicle: saline)?
The T/C was 43 % of control and 54 % of control.

What about the T/C (dose: 36.0 mg/kg/injection, schedule: Q01DX011 (ip), vehicle: saline) of the same molecule?
The T/C was 29 % of control.

And the T/C (dose: 54.0 mg/kg/injection, schedule: Q01DX011 (ip), vehicle: saline)?
Its T/C is 21 % of control.

For `CCCn1cnc2c(SCc3ccc(Br)cc3)nc(N)nc21`, which T/C (dose: 7.8 mg/kg/injection, schedule: Q01DX011 (ip), vehicle: methylcellulose (MC)) is on record?
Its T/C is 58 % of control.

What about the T/C (dose: 15.6 mg/kg/injection, schedule: Q01DX011 (ip), vehicle: methylcellulose (MC)) of the same molecule?
Its T/C is 57 % of control.

And the T/C (dose: 31.25 mg/kg/injection, schedule: Q01DX011 (ip), vehicle: methylcellulose (MC))?
The T/C was 20 % of control.

And the T/C (dose: 62.5 mg/kg/injection, schedule: Q01DX011 (ip), vehicle: methylcellulose (MC))?
The T/C was 21 % of control and 23 % of control.

Which results are given for `O=C1C(Cl)=C(Cl)C(=O)C2=C1C1c3ccccc3C2c2ccccc21`?
T/C (dose: 37.0 mg/kg/injection, schedule: Q01DX011 (ip), vehicle: carboxymethylcellulose (CMC)): 83 % of control; T/C [6]: 117 % of control; T/C (dose: 75.0 mg/kg/injection, schedule: Q01DX011 (ip), vehicle: carboxymethylcellulose (CMC)): 113 % of control and 114 % of control; T/C [7]: 89 % of control and 84 % of control; T/C [8]: 83 % of control; T/C (dose: 325.0 mg/kg/injection, schedule: Q01DX011 (ip), vehicle: carboxymethylcellulose (CMC)): 41 % of control; T/C [5]: 33 % of control; T/C (dose: 600.0 mg/kg/injection, schedule: Q01DX011 (ip), vehicle: carboxymethylcellulose (CMC)): 15 % of control

How did the T/C [9] turn out when `O=C1Nc2ccccc2SC1c1ccccc1Cl` (stereo not given) was run?
The T/C was 94 % of control and 78 % of control.

What about the T/C [4] of the same molecule?
Its T/C is 54 % of control and 60 % of control.

How did the T/C (dose: 12.0 mg/kg/injection, schedule: Q01DX011 (ip), vehicle: methylcellulose (MC)) turn out when `CC(C)CC(Nc1ncnc2nc[nH]c12)C(=O)O` (stereo not given) was run?
The T/C was 110 % of control.

What about the T/C [10] of the same molecule?
The T/C was 96 % of control.

And the T/C (dose: 50.0 mg/kg/injection, schedule: Q01DX011 (ip), vehicle: methylcellulose (MC))?
The T/C was 101 % of control.

What about the T/C (dose: 100.0 mg/kg/injection, schedule: Q01DX011 (ip), vehicle: methylcellulose (MC)) of the same molecule?
The T/C was 60 % of control.

How did the T/C [10] turn out when `Cn1cnc2nc[nH]c2c1=S` was run?
Its T/C is 64 % of control.

What about the T/C [9] of the same molecule?
The T/C was 75 % of control.

With `CCn1cnc2c(=S)nc(N)[nH]c21` as the molecule, how does the T/C (dose: 0.44 mg/kg/injection, schedule: Q01DX011 (ip), vehicle: methylcellulose (MC)) read?
The T/C was 108 % of control.

What about the T/C (dose: 0.88 mg/kg/injection, schedule: Q01DX011 (ip), vehicle: methylcellulose (MC)) of the same molecule?
Its T/C is 66 % of control.

And the T/C (dose: 1.75 mg/kg/injection, schedule: Q01DX011 (ip), vehicle: methylcellulose (MC))?
Its T/C is 33 % of control.

And the T/C (dose: 3.5 mg/kg/injection, schedule: Q01DX011 (ip), vehicle: methylcellulose (MC))?
Its T/C is 3 % of control.

How did the T/C (dose: 113.0 mg/kg/injection, schedule: Q01DX011 (ip), vehicle: carboxymethylcellulose (CMC)) turn out when `C[C@@H]1CN(C(=O)CCBr)[C@@H](C)CN1C(=O)CCBr` was run?
The T/C was 50 % of control.

And the T/C (dose: 225.0 mg/kg/injection, schedule: Q01DX011 (ip), vehicle: carboxymethylcellulose (CMC))?
The T/C was 48 % of control.

And the T/C (dose: 450.0 mg/kg/injection, schedule: Q01DX011 (ip), vehicle: carboxymethylcellulose (CMC))?
Its T/C is 57 % of control.
